2 compounds from publication PMC9186373, “Design, synthesis, and biological evaluation of novel carbazole derivatives as potent DNMT1 inhibitors with reasonable PK properties” (Journal of Enzyme Inhibition and Medicinal Chemistry, 2022) can be followed below.

In general, IC50 refers to the concentration needed to halve the response being measured.

The structures appear in SMILES notation. Where two headings read alike, the source gives them in different places.

One test concerns human DNMT1. The test can be described thus: ELISA EpiQuik DNA methyltransferase (DNMT) activity/inhibitor assay. In kind it is biochemical. The note with it: 200 nM purified DNMT1, EpiQuik kit; for Inh% at 50 μM: 50 μM compound; for Inh% at 100 μM: 100 μM compound. The gist of the method:
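Purified human DNMT1 (200 nM) was incubated 2 h at 37 °C with SAM and compound at 50 µM and 100 µM. Methylation was detected by antibody-based ELISA read at 450 nm.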
(In general: An ELISA detects its analyte on a solid surface through an enzyme-linked reagent.)

For the next test, the system named is DNMT3B/3L. The test can be described thus: Methyltransferase enzymatic selectivity profiling, DNMT3B/3L. In kind it is biochemical. The note with it: 1 - selected enzyme inhibition/DNMT1 inhibition; 50 µM. The protocol:
(§1) In addition to DNMT1, there are many other methyltransferases that can bind with S-adenosyl-L-methionine (SAM) to facilitate transmethylation reactions[24]^,[25]. To investigate the selectivity of these potent compounds for DNMT1, we then evaluated the inhibitory activities against DNMT1 and other important methyltransferases at the concentration of 50 µM, including DNMT3A/3L, DNMT3B/3L, and other SAM-dependent enzymes[1]^,[2]^,[26], such as EZH2[27], LSD1[28], G9a (histone H3 lysine 9 methyltransferase)[29].
(§2) Here, the selectivity of non-nucleoside DNMT1 inhibitors is somewhat predictable because other methyltransferases mentioned above catalyse different substrates and share very low homology with DNMT1, even in their catalytic domain[30–32]. Subsequently, the screened compounds were evaluated in a dose-dependent assay against HCT116 (human colon cancer cell line) and A549 (human lung carcinoma cell line).
(§3) 493 Relative selectivity index
(§4) 494 Relative selectivity index of DNMT1 is calculated by formula: DNMT1-selectivity
(§5) 495 index =1 - selected enzyme inhibition/DNMT1 inhibition. The closer
(§6) 496 that this value is to 1 or even more than 1, the better DNMT1-selectivity the of the
(§7) 498 Table S1. Relative selectivity index of DNMT1
Cpd. […]

Test [1] relates to G9a (histone H3 lysine 9 methyltransferase). Put plainly: Methylation inhibition assay (AlphaLisa), G9a. In kind it is biochemical. The note with it: 50 µM; for inhibitory activity against G9a: Figure 3; for Relative selectivity index of DNMT1 vs G9a: 1 - selected enzyme inhibition/DNMT1 inhibition. The procedure: (§8) All the compounds were first screened using an ELISA EpiQuik DNA methyltransferase (DNMT) activity/inhibitor assay kit (Epigentek). To measure the effects of the compounds on human DNMT1 activity, 200 nM purified DNMT1 was incubated with 50 µM and 100 µM of the different compounds and S-adenosylmethionine in the DNMT assay buffer in the assay plate at 37 °C for 2 h[36]. Next, every sample was incubated with the capture and detection antibody, followed by incubation with developer solution for 10 min at room temperature. The absorbance was measured at 450 nm using a POLARstar Omega microplate reader (BMG). S-Adenosylhomocysteine (AdoHcy) was used as a positive control. Methylation inhibition assays for EZH2, LSD, and G9a were performed in modified Tris, pH 9.0, buffer using AlphaLisa technology. An amount of 10 µL of the reaction system contained a corresponding concentration of SAM (Sigma) (EZH2 50 µM, LSD 50 µM, and G9a 50 µM), which was the Km value in each enzymatic reaction, plus 100 nM biotinylated peptide H3 (1–21) (synthesis by GLChina) and the relevant enzyme concentration (0.03 nM EZH2, 0.03 nM LSD, and 0.03 nM G9a). The proteins were preincubated with various compound concentrations for 15 min at room temperature before the substrate and SAM were added. After 60 min of incubation at room temperature, acceptor and donor AlphaLisa beads were added according to the manufacturer’s recommendations. The signals were read in Alpha mode with an EnSpire multimode plate reader (PerkinElmer). IC50 values were derived by fitting the data for the inhibition percentage to a dose-response curve by non-linear regression in GraphPad Prism 5.0[20].
as §1, §3, §4, §5, §6, §7
Cpd. […]

The subject of another test is LSD1. Put plainly: Methylation inhibition assay (AlphaLisa), LSD1. It is filed as biochemical. The note with it: 1 - selected enzyme inhibition/DNMT1 inhibition; 50 µM. The protocol:
as §8, §1, §3, §4, §5, §6, §7
Cpd. […]
For orientation: Bead proximity is the source of the signal in Alpha formats.

Another test has as its system EZH2. Put plainly: Methylation inhibition assay (AlphaLisa), EZH2. In kind it is biochemical. The note with it: 50 µM; for inhibitory activity against EZH2: Figure 3; for Relative selectivity index of DNMT1 vs EZH2: 1 - selected enzyme inhibition/DNMT1 inhibition. The procedure: as §8, §1, §3, §4, §5, §6, §7
Cpd. […]

A further test deals with DNMT3A/3L. The test can be described thus: Methyltransferase enzymatic selectivity profiling, DNMT3A/3L. The note with it: 1 - selected enzyme inhibition/DNMT1 inhibition; 50 µM. It is filed as biochemical. The procedure: as §1, §2, §3, §4, §5, §6, §7
Cpd. […]

The subject of test [2] is HCT116 (human colon cancer cells). Put plainly: MTT assay, HCT116. In kind it is cell-based. The protocol: (§9) The human lung cancer cells (A549) and human colon cancer cells (HCT116) were cultured in an RPMI-1640 medium containing 10% FBS, 100 U/mL streptomycin, and 100 U/mL penicillin at 37 °C in a humidified atmosphere with 5% CO2. All compounds were dissolved in DMSO and stock solutions were stored at −20 °C. Reagents were freshly diluted to the marked concentrations with a culture medium before use. DMSO concentration in experimental conditions never exceeded 0.1% (v/v). All cell lines were provided by the cell laboratory, School of pharmaceutical sciences, Guangzhou Medical University.
(§10) Cell viability was detected using an MTT assay kit. Cells were seeded into 96-well plates at a density of ∼1.0 × 10^4/well. 24 h later, sextuplicate wells were treated with media and new compounds at a fixed concentration (50 µM). After 24, 48, and 72 h, the drug-containing medium was replaced by a 100 µL fresh medium with 5 mg/mL MTT solution. After 4 h of incubation, the medium with MTT was removed, and 100 µL of DMSO was added to each well. The plates were gently agitated until the purple formazan crystals were dissolved, and the OD490 was determined using a […] (Olympus BX53, Japan). The data were calculated and plotted as the percent viability compared to the control.

The target in a further test is DNMT1 (Homo sapiens, UniProt P26358). The test can be described thus: H3-labelled radioactive methylation assay. It is filed as biochemical. The note with it: H3-labeled radioactive methylation assay; 40 nM DNMT1. The gist of the method: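 DNMT1 (40 nM) was preincubated with a compound range for 15 min at room temperature, then given 0.1 µM ^3H-SAM and 0.25 µg/mL poly(dI-dC)·poly(dI-dC) in 50 mM Tris-HCl pH 8.0, 1 mM DTT, 5% glycerol, 100 µg/mL BSA. After 60 min at 37 °C, filter-bound radioactivity was counted by scintillation. IC50 was taken from a non-linear dose-response fit.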
DNMT1, sequence (P26358 whole entry): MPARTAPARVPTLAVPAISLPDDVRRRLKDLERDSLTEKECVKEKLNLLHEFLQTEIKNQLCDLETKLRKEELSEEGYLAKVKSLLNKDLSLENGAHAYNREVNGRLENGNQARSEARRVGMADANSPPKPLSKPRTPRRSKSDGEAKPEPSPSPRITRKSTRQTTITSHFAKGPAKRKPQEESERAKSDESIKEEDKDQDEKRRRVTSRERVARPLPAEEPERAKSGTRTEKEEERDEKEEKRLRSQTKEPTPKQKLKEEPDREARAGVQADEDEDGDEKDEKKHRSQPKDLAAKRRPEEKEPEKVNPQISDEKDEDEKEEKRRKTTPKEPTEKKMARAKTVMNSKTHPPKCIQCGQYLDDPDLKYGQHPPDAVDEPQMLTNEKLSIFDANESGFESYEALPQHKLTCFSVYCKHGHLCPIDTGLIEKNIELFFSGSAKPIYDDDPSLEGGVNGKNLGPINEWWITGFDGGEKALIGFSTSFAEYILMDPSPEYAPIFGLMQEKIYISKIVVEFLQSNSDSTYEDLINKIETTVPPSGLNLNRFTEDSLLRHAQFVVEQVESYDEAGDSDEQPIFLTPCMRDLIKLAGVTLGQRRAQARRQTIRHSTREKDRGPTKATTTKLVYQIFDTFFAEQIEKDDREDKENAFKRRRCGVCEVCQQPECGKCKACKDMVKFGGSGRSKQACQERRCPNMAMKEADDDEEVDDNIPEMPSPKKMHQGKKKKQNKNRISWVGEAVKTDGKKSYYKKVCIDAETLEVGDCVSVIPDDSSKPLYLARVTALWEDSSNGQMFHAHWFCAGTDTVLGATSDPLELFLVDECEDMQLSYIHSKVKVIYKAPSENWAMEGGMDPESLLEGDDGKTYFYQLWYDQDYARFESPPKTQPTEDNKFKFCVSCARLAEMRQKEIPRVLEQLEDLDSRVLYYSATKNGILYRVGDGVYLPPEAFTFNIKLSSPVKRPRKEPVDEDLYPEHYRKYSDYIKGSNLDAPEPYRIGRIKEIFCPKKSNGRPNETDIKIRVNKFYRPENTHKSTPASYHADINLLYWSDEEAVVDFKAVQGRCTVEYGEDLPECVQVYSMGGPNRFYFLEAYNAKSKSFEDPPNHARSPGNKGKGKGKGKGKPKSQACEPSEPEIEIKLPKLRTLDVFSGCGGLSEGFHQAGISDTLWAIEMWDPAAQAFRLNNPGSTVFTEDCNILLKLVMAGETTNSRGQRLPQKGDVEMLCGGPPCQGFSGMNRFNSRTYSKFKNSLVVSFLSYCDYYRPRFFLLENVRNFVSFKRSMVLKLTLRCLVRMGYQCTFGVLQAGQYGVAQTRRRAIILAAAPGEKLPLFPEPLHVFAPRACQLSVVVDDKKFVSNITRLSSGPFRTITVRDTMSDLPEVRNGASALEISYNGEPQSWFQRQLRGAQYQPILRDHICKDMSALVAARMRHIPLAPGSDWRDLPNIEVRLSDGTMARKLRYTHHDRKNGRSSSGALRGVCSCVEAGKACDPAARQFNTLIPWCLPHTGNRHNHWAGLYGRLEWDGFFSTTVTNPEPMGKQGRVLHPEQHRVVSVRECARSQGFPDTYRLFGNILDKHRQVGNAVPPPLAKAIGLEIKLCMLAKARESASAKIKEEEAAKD

The test system of test [3] is A549 (human lung cancer cells). The test can be described thus: MTT assay, A549. In kind it is cell-based. The protocol: as §9, §10
(In general: Tetrazolium assays rely on reduction of a dye to a coloured formazan, in cell work by metabolically active cells.)

The mark [4] stands for this setting: HCT-116, 24 h, read-out: Inh % at 50 μM, HCT116, 24 h.
Setting [5] is: HCT-116, 48 h, read-out: Inh % at 50 μM, HCT116, 48 h.
Setting [6] is: HCT-116, 72 h, read-out: Inh % at 50 μM, HCT116, 72 h.
Setting [7] is: 24 h, read-out: Inh % at 50 μM, A549, 24 h.
[8] abbreviates: 48 h, read-out: Inh % at 50 μM, A549, 48 h.
Setting [9] is: 72 h, read-out: Inh % at 50 μM, A549, 72 h.

As to `CC(C)NCC(O)COC(Cn1c2ccc(F)cc2c2cc(F)ccc21)Cn1c2ccc(F)cc2c2cc(F)ccc21` (centres unmarked) [WK-22, 1-((1,3-Bis(3,6-difluoro-9H-carbazol-9-yl)propan-2-yl)oxy)-3-(isopropylamino)propan-2-ol], in the test on human DNMT1, the “Inh% at 50 μM” value is 99%. The “Inh% at 100 μM” value in the test on human DNMT1 came out at 100%. Also, the “Relative selectivity index of DNMT1 vs DNMT 3B/3L” value in the test on DNMT3B/3L is on record as 0.03. Besides, in [1], the “inhibitory activity against G9a” value is listed as “nearly no inhibitory activities”. Besides, the “Relative selectivity index of DNMT1 vs G9a” value in [1] is given as 0.9. Besides, the “Relative selectivity index of DNMT1 vs LSD1” value in the test with LSD1 was 0.02. The “inhibitory activity against EZH2” value in the test with EZH2 was “nearly no inhibitory activities”. Besides, in the test with EZH2, the “Relative selectivity index of DNMT1 vs EZH2” value is 0.96. Moreover, the “Relative selectivity index of DNMT1 vs DNMT 3A/3L” value in the test with DNMT3A/3L is on record as 0.04. Moreover, the inhibition at 50 µM in [2] (setting [4]) is 77.6%; in test [2] (setting [5]), 91.8%; in test [2] (setting [6]), 97.4%; in test [3] (setting [7]), 64.3%; in test [3] (setting [8]) it was 98%; in test [3] (setting [9]) it was 95.7%. Further, on DNMT1, the IC50 is 4.9 µM.
Take `CC(C)NCC(O)COC(Cn1c2ccccc2c2cc(F)ccc21)Cn1c2ccccc2c2cc(F)ccc21` (centres unmarked) [WK-23, 1-((1,3-bis(3-fluoro-9H-carbazol-9-yl)propan-2-yl)oxy)-3-(isopropylamino)propan-2-ol]: the “Inh% at 50 μM” value in the test with human DNMT1 is recorded as 99%. Also, the “Inh% at 100 μM” value in the test with human DNMT1 amounted to 100%. For the same compound, in the test on DNMT3B/3L, the “Relative selectivity index of DNMT1 vs DNMT 3B/3L” value turned out to be 0.02. Also, in test [1], the “inhibitory activity against G9a” value is on record as “nearly no inhibitory activities”. In addition, the “Relative selectivity index of DNMT1 vs G9a” value in test [1] amounted to 0.89. Moreover, the “Relative selectivity index of DNMT1 vs LSD1” value with LSD1 turned out to be 0.2. In addition, in the test with EZH2, the “inhibitory activity against EZH2” value was “nearly no inhibitory activities”. In the test with EZH2, the “Relative selectivity index of DNMT1 vs EZH2” value worked out at 0.85. For the same compound, the “Relative selectivity index of DNMT1 vs DNMT 3A/3L” value in the test on DNMT3A/3L is 0.06. For the same compound, the inhibition at 50 µM was 87.7% in test [2] (setting [4]); 92.9% in test [2] (setting [5]); 97.5% in test [2] (setting [6]); 75.9% in test [3] (setting [7]); 58.1% in test [3] (setting [8]); 93.6% in test [3] (setting [9]). For the same compound, the IC50 on DNMT1 is 5 µM.
